Reference: ChEMBL document CHEMBL1141004, “N-((8-hydroxy-5-substituted-quinolin-7-yl)(phenyl)methyl)-2-phenyloxy/amino-acetamide inhibitors of ADAMTS-5 (Aggrecanase-2)” (Bioorg Med Chem Lett, 2008)

What was measured:
[1] = target: Cytochrome P450 3A4 (Homo sapiens, UniProt P08684); experiment: Inhibition of CYP3A4 at 30 uM by FRET assay; type: ADME
[2] = Metabolic stability in rat liver microsomes assessed as half life; type: ADME, Microsome

Chain of Cytochrome P450 3A4 (P08684 whole entry): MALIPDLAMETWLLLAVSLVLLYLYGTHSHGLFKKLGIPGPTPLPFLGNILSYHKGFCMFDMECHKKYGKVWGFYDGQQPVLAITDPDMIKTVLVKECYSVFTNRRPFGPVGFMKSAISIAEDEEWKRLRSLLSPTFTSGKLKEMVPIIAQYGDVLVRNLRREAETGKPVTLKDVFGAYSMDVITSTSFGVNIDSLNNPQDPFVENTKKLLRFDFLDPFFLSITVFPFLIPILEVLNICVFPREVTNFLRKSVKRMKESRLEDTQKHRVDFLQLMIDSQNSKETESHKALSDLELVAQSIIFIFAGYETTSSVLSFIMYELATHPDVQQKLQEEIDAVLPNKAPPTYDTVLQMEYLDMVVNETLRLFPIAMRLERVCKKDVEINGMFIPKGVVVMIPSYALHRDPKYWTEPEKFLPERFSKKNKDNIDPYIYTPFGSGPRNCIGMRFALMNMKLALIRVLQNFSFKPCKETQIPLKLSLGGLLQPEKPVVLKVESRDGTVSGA

inhibition (INH) [1] [%] | half-life [2] [min] | SMILES
10 |  | CC(C)(C)c1ccc(OCC(=O)NC(c2ccccc2Cl)c2cc(Cl)c3cccnc3c2O)cc1 (centres undefined)
29 | 10 | Cc1ccc(C(NC(=O)CNCc2ccccc2)c2cc(Cl)c3cccnc3c2O)cc1 (centres undefined)
37 |  | Cc1ccc(C(NC(=O)CNc2cccc(N(C)C)c2)c2cc(Cl)c3cccnc3c2O)cc1 (centres undefined)
45 |  | Cc1ccc(C(NC(=O)COc2ccccc2)c2cc(Cl)c3cccnc3c2O)cc1 (centres undefined)
35 |  | O=C(COc1ccccc1)NC(c1ccccc1Cl)c1cc([N+](=O)[O-])c2cccnc2c1O (centres undefined)
69 |  | Cc1ccc(OCC(=O)NC(c2ccccc2)c2cc(Cl)c3cccnc3c2O)cc1 (centres undefined)
21 |  | COc1ccc(C(NC(=O)COc2ccc(Oc3ccccc3)cc2)c2cc(Cl)c3cccnc3c2O)cc1 (centres undefined)
16 | 5 | CN(CC(=O)NC(c1ccccc1Cl)c1cc(Cl)c2cccnc2c1O)Cc1ccccc1 (centres undefined)
33 | 16 | COc1ccc(C(NC(=O)COc2cccnc2)c2cc(Cl)c3cccnc3c2O)cc1 (centres undefined)
33 |  | O=C(COc1ccccc1)NC(c1ccccc1Cl)c1cc(Br)c2cccnc2c1O (centres undefined)
20 |  | CN(CC(=O)NC(c1cccc([N+](=O)[O-])c1)c1cc(Cl)c2cccnc2c1O)Cc1ccccc1 (centres undefined)
22 |  | O=C(COc1ccccc1)NC(c1ccccc1)c1cc(F)c2cccnc2c1O (centres undefined)
31 |  | CC(=O)Nc1ccc(OCC(=O)NC(c2cccc(F)c2)c2cc(Cl)c3cccnc3c2O)cc1 (centres undefined)
56 |  | O=C(COc1ccccc1)NC(c1ccccc1)c1ccc2cccnc2c1O (centres undefined)
26 |  | N#Cc1ccccc1C(NC(=O)COc1ccccc1)c1cc(Cl)c2cccnc2c1O (centres undefined)
57 |  | O=C(COc1ccccc1)NC(c1cccc(F)c1)c1cc(Cl)c2cccnc2c1O (centres undefined)
46 | 24 | O=C(COCc1ccccc1)NC(c1cccc(F)c1)c1cc(Cl)c2cccnc2c1O (centres undefined)
13 |  | O=C(COc1ccccc1)NC(c1ccc([N+](=O)[O-])cc1)c1cc(Cl)c2cccnc2c1O (centres undefined)
78 |  | COc1ccc(C(NC(=O)COc2ccc(C)cc2)c2cc(Cl)c3cccnc3c2O)cc1 (centres undefined)

inhibition (INH) [1] [%] | half-life [2] [min] | SMILES
35 |  | O=C(COc1cccnc1)NC(c1cccc(F)c1)c1cc(Cl)c2cccnc2c1O (centres undefined)
37 |  | O=C(COc1ccccc1)NC(c1ccccc1C(F)(F)F)c1cc(Cl)c2cccnc2c1O (centres undefined)
45 |  | Cc1ccc(C(NC(=O)COCc2ccccc2)c2cc(Cl)c3cccnc3c2O)cc1 (centres undefined)
20 |  | O=C(COc1cc(Cl)cc(Cl)c1)NC(c1cccc([N+](=O)[O-])c1)c1cc(Cl)c2cccnc2c1O (centres undefined)
38 |  | O=C(COc1ccccc1)NC(c1ccc(Cl)cc1)c1cc(Cl)c2cccnc2c1O (centres undefined)
32 |  | O=C(CNCc1ccccc1)NC(c1cccc(F)c1)c1cc(Cl)c2cccnc2c1O (centres undefined)
20 | 6 | Cc1ccc(C(NC(=O)CN(C)c2ccccc2)c2cc(Cl)c3cccnc3c2O)cc1 (centres undefined)
45 | 4 | CC(=O)c1ccc(NCC(=O)NC(c2ccc(C)cc2)c2cc(Cl)c3cccnc3c2O)cc1 (centres undefined)
37 |  | COc1ccc(C(NC(=O)COc2ccc(NC(C)=O)cc2)c2cc(Cl)c3cccnc3c2O)cc1 (centres undefined)
33 | 6 | Cc1cc(C(NC(=O)COc2ccccc2)c2cccc([N+](=O)[O-])c2)c(O)c2ncccc12 (centres undefined)
53 |  | CN(C)c1cccc(OCC(=O)NC(c2cccc(F)c2)c2cc(Cl)c3cccnc3c2O)c1 (centres undefined)
38 | 5 | O=C(COc1ccccc1)NC(c1ccccc1[N+](=O)[O-])c1cc(Cl)c2cccnc2c1O (centres undefined)
27 |  | CC(=O)c1ccc(NCC(=O)NC(c2cccc([N+](=O)[O-])c2)c2cc(Cl)c3cccnc3c2O)cc1 (centres undefined)
56 |  | COc1ccc(C(NC(=O)COc2cccc(N(C)C)c2)c2cc(Cl)c3cccnc3c2O)cc1 (centres undefined)
24 |  | O=C(COc1ccccc1)NC(c1ccccc1F)c1cc(Cl)c2cccnc2c1O (centres undefined)
55 |  | Cc1cc(C(NC(=O)COc2ccccc2)c2ccccc2Cl)c(O)c2ncccc12 (centres undefined)
36 |  | O=C(CNCc1ccccc1)NC(c1ccccc1Cl)c1cc(Cl)c2cccnc2c1O (centres undefined)
34 |  | CN(CC(=O)NC(c1ccccc1Cl)c1cc(Cl)c2cccnc2c1O)c1ccccc1 (centres undefined)
14 |  | Cc1cc(NCC(=O)NC(c2cccc(F)c2)c2cc(Cl)c3cccnc3c2O)ccc1Cl (centres undefined)

inhibition (INH) [1] [%] | half-life [2] [min] | SMILES
17 |  | Cc1cc(NCC(=O)NC(c2cccc([N+](=O)[O-])c2)c2cc(Cl)c3cccnc3c2O)ccc1Cl (centres undefined)
2 |  | O=C(COc1ccc(Cl)cc1)NC(c1ccccc1)c1cc(Cl)c2cccnc2c1O (centres undefined)
38 |  | O=C(COc1ccccc1)NC(c1cccc([N+](=O)[O-])c1)c1cc(Br)c2cccnc2c1O (centres undefined)
10 |  | Cc1ccccc1C(NC(=O)COc1ccccc1)c1cc(Cl)c2cccnc2c1O (centres undefined)
41 |  | CN(CC(=O)NC(c1cccc(F)c1)c1cc(Cl)c2cccnc2c1O)c1ccccc1 (centres undefined)
67 |  | O=C(COc1cccnc1)NC(c1cccc([N+](=O)[O-])c1)c1cc(Cl)c2cccnc2c1O (centres undefined)
29 |  | Cc1ccc(C(NC(=O)CNc2ccc(C#N)cc2)c2cc(Cl)c3cccnc3c2O)cc1 (centres undefined)
30 |  | Cc1cc(OCC(=O)NC(c2ccccc2Cl)c2cc(Cl)c3cccnc3c2O)ccc1Cl (centres undefined)
5 |  | O=C(COc1ccccc1)NC(c1ccccc1)c1cc(Cl)c2cccnc2c1O (centres undefined)
38 |  | CN(C)c1cccc(OCC(=O)NC(c2ccccc2Cl)c2cc(Cl)c3cccnc3c2O)c1 (centres undefined)
30 | 16 | Cc1ccc(C(NC(=O)CN(C)Cc2ccccc2)c2cc(Cl)c3cccnc3c2O)cc1 (centres undefined)
54 |  | COc1ccc(C(NC(=O)COc2ccccc2)c2cc(Cl)c3cccnc3c2O)cc1 (centres undefined)
32 | 16 | CN(CC(=O)NC(c1cccc(F)c1)c1cc(Cl)c2cccnc2c1O)Cc1ccccc1 (centres undefined)
8 | 30 | CC(=O)Nc1ccc(NCC(=O)NC(c2cccc([N+](=O)[O-])c2)c2cc(Cl)c3cccnc3c2O)cc1 (centres undefined)
4 |  | CC(=O)Nc1ccc(OCC(=O)NC(c2ccccc2Cl)c2cc(Cl)c3cccnc3c2O)cc1 (centres undefined)
12 |  | Cc1ccc(C(NC(=O)CNc2ccc(Cl)c(C)c2)c2cc(Cl)c3cccnc3c2O)cc1 (centres undefined)
20 |  | O=C(COc1ccccc1)NC(c1ccccc1)c1cc([N+](=O)[O-])c2cccnc2c1O (centres undefined)
18 |  | CC(=O)c1ccc(OCC(=O)NC(c2cccc([N+](=O)[O-])c2)c2cc(Cl)c3cccnc3c2O)cc1 (centres undefined)
11 | 8 | Cc1cc(NCC(=O)NC(c2ccccc2Cl)c2cc(Cl)c3cccnc3c2O)ccc1Cl (centres undefined)
